Measured values taken from ChEMBL document CHEMBL1201862, “PubChem BioAssay data set” (2004).
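All cell lines were grown in 96-well plates and treated with compound for 48 hours. GI50 is the concentration that inhibits growth by half.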 The source made the active and inactive calls. Rule as the data show it: active = GI50 up to about 1.1 µM and inactive = higher.

Tests used:
Assay in all cases: NCI anticancer screen, dose series, 48 h
RPMI-8226 = system: RPMI-8226
PC-3 = system: PC-3
MDA-MB-231 = system: MDA-MB-231
SF-268 = system: SF-268
HL-60 = system: HL-60
TK-10 = system: TK-10
SF-539 = system: SF-539
SF-295 = system: SF-295
LOX IMVI = system: LOX IMVI
KM12 = system: KM12
COLO 205 = system: COLO 205
CAKI-1 = system: CAKI-1
NCI-H226 = system: NCI-H226
MCF7 = system: MCF7
RXF 393 = system: RXF 393
BT-549 = system: BT-549
OVCAR-4 = system: OVCAR-4
SK-OV-3 = system: SK-OV-3
M14 = system: M14
T47D = system: T47D

SMILES	GI50 (RPMI-8226)	GI50 (PC-3)	GI50 (MDA-MB-231)	GI50 (SF-268)	GI50 (HL-60)	GI50 (TK-10)	GI50 (SF-539)	GI50 (SF-295)	GI50 (LOX IMVI)	GI50 (KM12)	GI50 (COLO 205)	GI50 (CAKI-1)	GI50 (NCI-H226)	GI50 (MCF7)	GI50 (RXF 393)	GI50 (BT-549)	GI50 (OVCAR-4)	GI50 (SK-OV-3)	GI50 (M14)	GI50 (T47D)
Nc1nc(Cl)c(CO)c(NCC2(CO)CC(CCc3ccccc3)C2)n1 (stereo unspecified)	3.5 µM (inactive)	51.3 µM (inactive)	12.5 µM (inactive)	43.1 µM (inactive)	3.4 µM (inactive)	80.2 µM (inactive)	21.9 µM (inactive)	10.6 µM (inactive)	12.5 µM (inactive)	0.264 µM (active)	14.5 µM (inactive)	37.8 µM (inactive)	13.3 µM (inactive)	14.3 µM (inactive)	20.9 µM (inactive)	15.4 µM (inactive)	14.4 µM (inactive)			
CCN1C/C(=C\c2ccc(Cl)cc2)c2nc(N)c(C#N)c(-c3ccc(Cl)cc3)c2C1	> 100 µM (inactive)	> 100 µM (inactive)	> 100 µM (inactive)	> 100 µM (inactive)	> 100 µM (inactive)	> 100 µM (inactive)		> 100 µM (inactive)	> 100 µM (inactive)	> 100 µM (inactive)	> 100 µM (inactive)	> 100 µM (inactive)	> 100 µM (inactive)	> 100 µM (inactive)	> 100 µM (inactive)	> 100 µM (inactive)	> 100 µM (inactive)	> 100 µM (inactive)	> 100 µM (inactive)	
CCN(CC)CCC1CCCCN1CC(=O)N1c2ccccc2NC(=O)CC1C (stereo unspecified)	> 100 µM (inactive)	> 100 µM (inactive)	> 100 µM (inactive)	> 100 µM (inactive)	> 100 µM (inactive)	> 100 µM (inactive)	> 100 µM (inactive)	> 100 µM (inactive)	> 100 µM (inactive)	> 100 µM (inactive)	> 100 µM (inactive)	> 100 µM (inactive)	> 100 µM (inactive)	> 100 µM (inactive)	> 100 µM (inactive)		> 100 µM (inactive)	> 100 µM (inactive)	> 100 µM (inactive)	> 100 µM (inactive)
OC1(c2ccc(-c3ccccc3)cc2)c2ccccc2C2=NCCN21 (stereo unspecified)	29 µM (inactive)	11.9 µM (inactive)	56.1 µM (inactive)	29.6 µM (inactive)	33.7 µM (inactive)	> 100 µM (inactive)		52.2 µM (inactive)	34.8 µM (inactive)	22.9 µM (inactive)	21.4 µM (inactive)	50.6 µM (inactive)	18.3 µM (inactive)			> 100 µM (inactive)	56.8 µM (inactive)	86.3 µM (inactive)		86.9 µM (inactive)
O=C(NCc1cccc2ccccc12)N/N=C\c1ccc(Cl)cc1	77.1 µM (inactive)	> 100 µM (inactive)		93.8 µM (inactive)	> 100 µM (inactive)	> 100 µM (inactive)	> 100 µM (inactive)	53.5 µM (inactive)	> 100 µM (inactive)	49 µM (inactive)	> 100 µM (inactive)	43.2 µM (inactive)	> 100 µM (inactive)	43.3 µM (inactive)	> 100 µM (inactive)	> 100 µM (inactive)	> 100 µM (inactive)		74.5 µM (inactive)	> 100 µM (inactive)
COC(=O)CCC(NC(=O)OC(C)(C)C)C(=O)NC(Cc1ccc(NC(=O)CCCC(C)=O)cc1)C(=O)NC(CCC(=O)OC)C(=O)OC (stereo unspecified)	> 100 µM (inactive)	> 100 µM (inactive)	> 100 µM (inactive)	> 100 µM (inactive)		> 100 µM (inactive)	> 100 µM (inactive)	> 100 µM (inactive)	> 100 µM (inactive)	> 100 µM (inactive)	> 100 µM (inactive)	> 100 µM (inactive)	> 100 µM (inactive)	> 100 µM (inactive)	> 100 µM (inactive)		> 100 µM (inactive)	> 100 µM (inactive)	> 100 µM (inactive)	> 100 µM (inactive)
Nc1nnnn1NC(=O)NCCCl	> 10 µM (inactive)	> 10 µM (inactive)	> 10 µM (inactive)	> 10 µM (inactive)	> 10 µM (inactive)	> 10 µM (inactive)	> 10 µM (inactive)	> 10 µM (inactive)	> 10 µM (inactive)	> 10 µM (inactive)	> 10 µM (inactive)	> 10 µM (inactive)	> 10 µM (inactive)	> 10 µM (inactive)	> 10 µM (inactive)		> 10 µM (inactive)	> 10 µM (inactive)	> 10 µM (inactive)	> 10 µM (inactive)
CC(=O)CC(=O)Nn1c(-c2cccs2)nc2ccc(I)cc2c1=O	> 57.9 µM (inactive)	> 51.5 µM (inactive)		> 47.3 µM (inactive)	> 66.5 µM (inactive)	> 43.9 µM (inactive)		> 54.7 µM (inactive)	> 46.5 µM (inactive)	> 54.7 µM (inactive)	> 51.4 µM (inactive)	> 47.3 µM (inactive)	> 42.3 µM (inactive)	> 54.2 µM (inactive)	> 68.9 µM (inactive)	> 35.9 µM (inactive)	> 100 µM (inactive)	> 66.7 µM (inactive)	> 66.8 µM (inactive)	> 62.1 µM (inactive)
CC(=O)O[C@H]1C(=O)[C@@]2(C)[C@H]([C@H](OC(=O)c3ccccc3)[C@]3(O)C[C@H](OC(=O)[C@H](O)[C@@H](NC(=O)C(C)(C)C)c4ccccc4)C(C)=C1C3(C)C)[C@]1(OC(C)=O)CO[C@@H]1C[C@@H]2O	0.0305 µM (active)	0.0565 µM (active)	5.93 µM (inactive)	0.168 µM (active)	0.018 µM (active)	0.38 µM (active)	0.0585 µM (active)	0.29 µM (active)	0.0542 µM (active)	0.0221 µM (active)	0.0444 µM (active)	1.56 µM (inactive)	0.428 µM (active)	0.031 µM (active)	0.188 µM (active)	0.342 µM (active)	> 10 µM (inactive)	0.0177 µM (active)	0.0982 µM (active)	
O=c1oc2ccc3ccccc3c2cc1-c1nc2ccccc2s1		> 100 µM (inactive)	> 100 µM (inactive)	> 100 µM (inactive)	> 100 µM (inactive)	> 100 µM (inactive)	> 100 µM (inactive)	> 100 µM (inactive)	> 100 µM (inactive)	> 100 µM (inactive)	> 100 µM (inactive)	> 100 µM (inactive)	> 100 µM (inactive)		> 100 µM (inactive)	> 100 µM (inactive)	> 100 µM (inactive)	> 100 µM (inactive)	> 100 µM (inactive)	> 66.7 µM (inactive)
C#CCNC(CCCNC(=N)N)C(=O)O (stereo unspecified)	> 100 µM (inactive)	> 100 µM (inactive)	> 100 µM (inactive)	> 100 µM (inactive)	> 100 µM (inactive)	> 100 µM (inactive)		> 100 µM (inactive)	> 100 µM (inactive)	> 100 µM (inactive)	> 100 µM (inactive)	> 100 µM (inactive)	> 100 µM (inactive)		> 100 µM (inactive)	> 100 µM (inactive)	> 100 µM (inactive)	> 100 µM (inactive)	> 100 µM (inactive)	> 100 µM (inactive)
c1csc(-c2cc(-c3cccs3)c(-c3ccsc3)s2)c1	96.2 µM (inactive)	> 100 µM (inactive)	> 100 µM (inactive)	> 100 µM (inactive)	> 100 µM (inactive)	> 100 µM (inactive)	> 100 µM (inactive)	> 100 µM (inactive)	> 100 µM (inactive)	55.5 µM (inactive)	55.5 µM (inactive)	> 100 µM (inactive)	> 100 µM (inactive)	24.7 µM (inactive)			> 100 µM (inactive)	> 100 µM (inactive)	> 100 µM (inactive)	17.6 µM (inactive)
CCOC(=O)c1sc2[n+](c1C)C(=O)/C(=C/c1ccccc1Cl)S2	0.54 µM (active)	0.989 µM (active)	3.06 µM (inactive)	3.58 µM (inactive)	4.12 µM (inactive)	15.3 µM (inactive)	0.472 µM (active)	0.324 µM (active)	0.851 µM (active)	0.425 µM (active)	3.13 µM (inactive)	0.453 µM (active)	0.953 µM (active)	3.11 µM (inactive)	15.3 µM (inactive)		33.3 µM (inactive)	1.99 µM (inactive)	2.2 µM (inactive)	15.3 µM (inactive)
COc1cc2c(c(OC)c1OC)-c1ccc(OC)c(=O)cc1[C@@H](NC(=O)c1ccccc1)CC2	0.0608 µM (active)	0.0169 µM (active)	0.0151 µM (active)	0.0154 µM (active)	< 0.01 µM (active)	0.17 µM (active)		0.0136 µM (active)	0.0142 µM (active)	0.0106 µM (active)	< 0.01 µM (active)	0.0206 µM (active)	0.067 µM (active)	< 0.0146 µM (active)	0.0234 µM (active)			0.0646 µM (active)	0.0118 µM (active)	58.3 µM (inactive)
O=C(CC(O)(C(F)(F)Cl)C(F)(F)Cl)CC(O)(C(F)(F)Cl)C(F)(F)Cl	0.516 µM (active)	1.11 µM (active)	2.05 µM (inactive)	1.5 µM (inactive)	1.78 µM (inactive)	1.81 µM (inactive)	2.95 µM (inactive)	2.36 µM (inactive)	3.83 µM (inactive)	3.04 µM (inactive)	1.63 µM (inactive)	2 µM (inactive)	1.33 µM (inactive)	2.14 µM (inactive)	1.8 µM (inactive)		1.33 µM (inactive)	1.87 µM (inactive)	4.03 µM (inactive)	0.647 µM (active)
